Among the data in ChEMBL document CHEMBL1159126, “Salicylanilide carbamates: antitubercular agents active against multidrug-resistant Mycobacterium tuberculosis strains” (Bioorg Med Chem, 2010) are MIC, logP and EC50 values, retold here.

The subject of series [1] is Mycobacterium kansasii. Briefly: Antimycobacterial activity against Mycobacterium kansasii 6509/96 after 21 days by micromethod. In kind it is functional. Particulars: 6509/96, 504 h.
Series [2] relates to Mycobacterium tuberculosis. Briefly: microbe, parasite or virus in culture. Particulars: 331/88, 336 h.
Description: Antimycobacterial activity against Mycobacterium tuberculosis 331/88 after 14 days by micromethod
Series [3] has as its system Mycobacterium tuberculosis. Briefly: microbe, parasite or virus in culture. Particulars: 331/88, 504 h.
Description: Antimycobacterial activity against Mycobacterium tuberculosis 331/88 after 21 days by micromethod
Series [4] can be described thus: Partition coefficient, log P of the compound. It counts as physicochemical. The following applies: octanol/water.
Series [5] has as its system Mycobacterium avium. In words: Antimycobacterial activity against Mycobacterium avium 330/88 after 14 days by micromethod. The following applies: 330/88, 336 h. In kind it is functional.
The test system of series [6] is Mycobacterium kansasii. Briefly: Antimycobacterial activity against Mycobacterium kansasii 6509/96 after 14 days by micromethod. It counts as functional. Particulars: 6509/96, 336 h.
In series [7] the test system is Mycobacterium kansasii. Briefly: Antimycobacterial activity against Mycobacterium kansasii 235/80 after 21 days by micromethod. In kind it is functional. Particulars: 235/80, 504 h.
The test system of series [8] is Mycobacterium avium. In words: Antimycobacterial activity against Mycobacterium avium 330/88 after 21 days by micromethod. It counts as functional. Particulars: 330/88, 504 h.
In series [9] the test system is Mycobacterium kansasii. Briefly: Antimycobacterial activity against Mycobacterium kansasii 235/80 after 14 days by micromethod. It counts as functional. The following applies: 235/80, 336 h.
A short description of series [10]: Toxicity against human HCT8 cells after 72 hrs by XTT assay. It counts as cell-based, HCT-8. (In general: Formazan colour is commonly taken as a measure of viable cells.)

≈ marks a conversion by molar mass, not a printed value.

As usually defined, the logP is a log measure of how a compound divides between an organic and an aqueous phase. High values mean higher lipophilicity, low ones lower lipophilicity. With `CCNC(=O)Oc1ccc(Cl)cc1C(=O)Nc1ccc(Cl)cc1`, the MIC was 8 µM (≈ 2.83 µg/mL) in the series on Mycobacterium kansasii [1]; 1 µM (≈ 0.353 µg/mL) in series [2]; 2 µM (≈ 0.706 µg/mL) in series [3]; 8 µM (≈ 2.83 µg/mL) with Mycobacterium avium [5]; 4 µM (≈ 1.41 µg/mL) with Mycobacterium kansasii [6]; 8 µM (≈ 2.83 µg/mL) against Mycobacterium kansasii [7]. Moreover, the MIC with Mycobacterium avium [8] stood at 8 µM (≈ 2.83 µg/mL); in the series with Mycobacterium kansasii [9], 4 µM (≈ 1.41 µg/mL). In series [4], this molecule had a logP of 3.79.

For `CCCCCCCCCCCNC(=O)Oc1ccc(Cl)cc1C(=O)Nc1ccc(Cl)cc1`, the MIC is 8 µM (≈ 3.84 µg/mL) with Mycobacterium kansasii [1]; 2 µM (≈ 0.959 µg/mL) in series [2]; 2 µM (≈ 0.959 µg/mL) in series [3]; 8 µM (≈ 3.84 µg/mL) with Mycobacterium avium [5]; 8 µM (≈ 3.84 µg/mL) in the series on Mycobacterium kansasii [6]; 8 µM (≈ 3.84 µg/mL) in the series on Mycobacterium kansasii [7]. The MIC in the series with Mycobacterium avium [8] and in the series on Mycobacterium kansasii [9] was 8 µM (≈ 3.84 µg/mL) each time. The same molecule yielded a logP in [4] of 7.61.

As to `CCCCCCCCCNC(=O)Oc1ccc(Cl)cc1C(=O)Nc1cccc(Cl)c1`, the MIC against Mycobacterium kansasii [1] worked out at 4 µM (≈ 1.81 µg/mL); in [2] it was 1 µM (≈ 0.451 µg/mL); in [3], 2 µM (≈ 0.903 µg/mL); in the series on Mycobacterium avium [5], 2 µM (≈ 0.903 µg/mL); against Mycobacterium kansasii [6], 4 µM (≈ 1.81 µg/mL); against Mycobacterium kansasii [7], 4 µM (≈ 1.81 µg/mL). The MIC in the series on Mycobacterium avium [8] and in the series with Mycobacterium kansasii [9] was 4 µM (≈ 1.81 µg/mL) throughout. Moreover, the logP in series [4] was 6.78.

As for `CCCCCCCCNC(=O)Oc1ccc(Cl)cc1C(=O)Nc1cccc(Cl)c1`, the MIC in the series with Mycobacterium kansasii [1] was 8 µM (≈ 3.5 µg/mL); in [2], 2 µM (≈ 0.875 µg/mL); in [3], 2 µM (≈ 0.875 µg/mL); against Mycobacterium avium [5] it was 4 µM (≈ 1.75 µg/mL); in the series on Mycobacterium kansasii [6] it was 4 µM (≈ 1.75 µg/mL); against Mycobacterium kansasii [7], 8 µM (≈ 3.5 µg/mL). Besides, the MIC was found to be 4 µM (≈ 1.75 µg/mL) against Mycobacterium avium [8] and 8 µM (≈ 3.5 µg/mL) with Mycobacterium kansasii [9]. Besides, the logP in series [4] stood at 6.36.

Regarding `CCCCCCCNC(=O)Oc1ccc(Cl)cc1C(=O)Nc1cccc(Cl)c1`, the MIC is 8 µM (≈ 3.39 µg/mL) in the series with Mycobacterium kansasii [1]; 1 µM (≈ 0.423 µg/mL) in [2]; 2 µM (≈ 0.847 µg/mL) in series [3]; 8 µM (≈ 3.39 µg/mL) against Mycobacterium avium [5]; 8 µM (≈ 3.39 µg/mL) against Mycobacterium kansasii [6]; 8 µM (≈ 3.39 µg/mL) in the series with Mycobacterium kansasii [7]. The MIC against Mycobacterium avium [8] came to 8 µM (≈ 3.39 µg/mL); in the series on Mycobacterium kansasii [9], 4 µM (≈ 1.69 µg/mL). In [4], this molecule gave a logP of 5.94.

`CCCCNC(=O)Oc1ccc(Cl)cc1C(=O)Nc1ccc(Cl)cc1`: the MIC in the series with Mycobacterium kansasii [1] came to 4 µM (≈ 1.53 µg/mL); in series [2], 2 µM (≈ 0.763 µg/mL); in series [3], 2 µM (≈ 0.763 µg/mL); with Mycobacterium avium [5], 4 µM (≈ 1.53 µg/mL); with Mycobacterium kansasii [6], 2 µM (≈ 0.763 µg/mL); with Mycobacterium kansasii [7] it was 4 µM (≈ 1.53 µg/mL). Also, the results for the MIC in the series on Mycobacterium avium [8] and in the series with Mycobacterium kansasii [9] were 8 µM (≈ 3.05 µg/mL) and 4 µM (≈ 1.53 µg/mL), respectively. The logP in [4] amounted to 4.69.

For the molecule `CCCCCCCCCCNC(=O)Oc1ccc(Cl)cc1C(=O)Nc1cccc(Cl)c1`, the MIC was 8 µM (≈ 3.72 µg/mL) against Mycobacterium kansasii [1]; 1 µM (≈ 0.465 µg/mL) in series [2]; 2 µM (≈ 0.931 µg/mL) in [3]; 8 µM (≈ 3.72 µg/mL) in the series on Mycobacterium avium [5]; 8 µM (≈ 3.72 µg/mL) in the series on Mycobacterium kansasii [6]; 8 µM (≈ 3.72 µg/mL) against Mycobacterium kansasii [7]. Besides, the MIC against Mycobacterium avium [8] and in the series on Mycobacterium kansasii [9] was 8 µM (≈ 3.72 µg/mL) each time. This molecule yielded a logP in series [4] of 7.19.

Regarding `CCCCCNC(=O)Oc1ccc(Cl)cc1C(=O)Nc1cccc(Cl)c1`, the MIC stood at 8 µM (≈ 3.16 µg/mL) against Mycobacterium kansasii [1]; 2 µM (≈ 0.791 µg/mL) in series [2]; 4 µM (≈ 1.58 µg/mL) in [3]; 8 µM (≈ 3.16 µg/mL) against Mycobacterium avium [5]; 8 µM (≈ 3.16 µg/mL) in the series on Mycobacterium kansasii [6]; 8 µM (≈ 3.16 µg/mL) against Mycobacterium kansasii [7]. The MIC against Mycobacterium avium [8] and in the series on Mycobacterium kansasii [9] was 8 µM (≈ 3.16 µg/mL) throughout. Besides, the logP in series [4] came to 5.11.

As to `CCCCNC(=O)Oc1ccc(Cl)cc1C(=O)Nc1cccc(Cl)c1`, the MIC against Mycobacterium kansasii [1] came out at 16 µM (≈ 6.1 µg/mL); in series [2], 2 µM (≈ 0.763 µg/mL); in [3], 4 µM (≈ 1.53 µg/mL); in the series on Mycobacterium avium [5] it was 8 µM (≈ 3.05 µg/mL); in the series on Mycobacterium kansasii [6] it was 8 µM (≈ 3.05 µg/mL); against Mycobacterium kansasii [7] it was 16 µM (≈ 6.1 µg/mL). The MIC in the series with Mycobacterium avium [8] and in the series on Mycobacterium kansasii [9] was 16 µM (≈ 6.1 µg/mL) in each case. Further, in [4], the logP stood at 4.69.

As to `CCCCCCCCCCNC(=O)Oc1ccc(Cl)cc1C(=O)Nc1ccc(Cl)cc1`, the MIC turned out to be 8 µM (≈ 3.72 µg/mL) against Mycobacterium kansasii [1]; 2 µM (≈ 0.931 µg/mL) in [2]; 2 µM (≈ 0.931 µg/mL) in [3]; 8 µM (≈ 3.72 µg/mL) in the series on Mycobacterium avium [5]; 8 µM (≈ 3.72 µg/mL) with Mycobacterium kansasii [6]; 8 µM (≈ 3.72 µg/mL) against Mycobacterium kansasii [7]. In addition, the MIC with Mycobacterium avium [8] and in the series on Mycobacterium kansasii [9] was 8 µM (≈ 3.72 µg/mL) each time. In addition, in [4], the lipophilicity (logP) is 7.19.

On to `CCCCCCCCCCCNC(=O)Oc1ccc(Cl)cc1C(=O)Nc1ccc(Cl)c(Cl)c1`, for which the MIC is 4 µM (≈ 2.06 µg/mL) in the series with Mycobacterium kansasii [1]; 2 µM (≈ 1.03 µg/mL) in [2]; 2 µM (≈ 1.03 µg/mL) in [3]; 16 µM (≈ 8.22 µg/mL) against Mycobacterium avium [5]; 4 µM (≈ 2.06 µg/mL) in the series on Mycobacterium kansasii [6]; 4 µM (≈ 2.06 µg/mL) against Mycobacterium kansasii [7]. Besides, the results for the MIC with Mycobacterium avium [8] and against Mycobacterium kansasii [9] were 16 µM (≈ 8.22 µg/mL) and 4 µM (≈ 2.06 µg/mL), respectively. In series [4], this molecule yielded a lipophilicity (logP) of 8.17.

Usually EC50 stands for the concentration needed to bring the measured effect to its halfway point. Low readings indicate higher potency in that assay, high ones lower potency in that assay. For `NNC(=O)c1ccncc1` [ISONIAZID], the MIC was 4 µM (≈ 0.549 µg/mL) against Mycobacterium kansasii [1]; 0.5 µM (≈ 0.0686 µg/mL) in series [2]; 0.5 µM (≈ 0.0686 µg/mL) in series [3]; above 250 µM against Mycobacterium avium [5]; 4 µM (≈ 0.549 µg/mL) in the series with Mycobacterium kansasii [6]; above 250 µM against Mycobacterium kansasii [7]. Also, the MIC against Mycobacterium avium [8] and against Mycobacterium kansasii [9] was above 250 µM each time. In addition, the 50% effective concentration (EC50) at 72 h in [10] is above 100 µM.
